Results on one molecule are retold here after ChEMBL document CHEMBL1137595, “Identification and optimisation of a series of substituted 5-(1H-pyrazol-3-yl)-thiophene-2-hydroxamic acids as potent histone deacetylase (HDAC) inhibitors” (Bioorg Med Chem Lett, 2007).

This series is described as follows: Oral bioavailability after oral dosing at 5 mg kg-1. Type of series: ADME, organism-based. The settings on record: mouse, in vivo.

Take `O=C(NO)c1ccc(-c2ccn(CCNCc3ccc4c(c3)OCO4)n2)s1`: the bioavailability turned out to be 10%.
